Measurements from ChEMBL document CHEMBL4680132, “Tuning isoform selectivity and bortezomib sensitivity with a new class of alkenyl indene PDI inhibitor” (Eur J Med Chem, 2020).
The source made the active and inactive calls. The rule behind the calls is not given here.

Legend:
MM1.S [1] = assay: Inhibition of PDI in human bortezomib-resistant MM1.S cells assessed as induction of ATF4 levels at 0.5 uM incubated for 8 hrs by Western blot analysis
MM1.S [2] = assay: Inhibition of PDI in human bortezomib-resistant MM1.S cells assessed as induction of Nrf2 levels at 0.5 uM incubated for 8 hrs by Western blot analysis
MM1.S [3] = assay: Inhibition of PDI in human bortezomib-resistant MM1.S cells assessed as induction of CHOP levels at 0.5 uM incubated for 8 hrs by Western blot analysis
MM1.S [4] = assay: Inhibition of PDI in human bortezomib-resistant MM1.S cells assessed as accumulation of poly-ubiquinated protein at 0.5 uM incubated for 8 hrs by Western blot analysis
[5] = target: T1, Protein disulfide-isomerase A3 (Homo sapiens, UniProt P30101); assay: Inhibition of PDIA3 (unknown origin) expressed in Escherichia coli BL21 (DE3) incubated for 1 hr and measured by insulin reduction assay
T1 sequence (P30101 whole entry): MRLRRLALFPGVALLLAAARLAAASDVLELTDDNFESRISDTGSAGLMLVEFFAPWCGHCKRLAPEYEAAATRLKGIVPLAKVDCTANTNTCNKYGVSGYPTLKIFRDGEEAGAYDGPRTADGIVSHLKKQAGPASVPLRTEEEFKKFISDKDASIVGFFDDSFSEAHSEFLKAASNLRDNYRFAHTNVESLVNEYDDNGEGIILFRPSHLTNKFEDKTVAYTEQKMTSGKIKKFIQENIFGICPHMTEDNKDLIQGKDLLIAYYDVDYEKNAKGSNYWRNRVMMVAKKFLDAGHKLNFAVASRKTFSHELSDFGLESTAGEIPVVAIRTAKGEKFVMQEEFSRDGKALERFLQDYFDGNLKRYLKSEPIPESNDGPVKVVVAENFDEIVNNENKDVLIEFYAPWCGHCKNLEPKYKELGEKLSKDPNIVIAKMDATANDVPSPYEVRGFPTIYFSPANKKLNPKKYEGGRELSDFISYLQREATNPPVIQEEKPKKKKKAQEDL

[6] = Inhibition of thioredoxin (unknown origin); design: species or system Homo sapiens
[7] = target: Thioredoxin domain-containing protein 5 (Homo sapiens, UniProt Q8NBS9); assay: Inhibition of TXNDC5 (unknown origin)
Sequence of Thioredoxin domain-containing protein 5 (Q8NBS9 whole entry, the tested form may be a part): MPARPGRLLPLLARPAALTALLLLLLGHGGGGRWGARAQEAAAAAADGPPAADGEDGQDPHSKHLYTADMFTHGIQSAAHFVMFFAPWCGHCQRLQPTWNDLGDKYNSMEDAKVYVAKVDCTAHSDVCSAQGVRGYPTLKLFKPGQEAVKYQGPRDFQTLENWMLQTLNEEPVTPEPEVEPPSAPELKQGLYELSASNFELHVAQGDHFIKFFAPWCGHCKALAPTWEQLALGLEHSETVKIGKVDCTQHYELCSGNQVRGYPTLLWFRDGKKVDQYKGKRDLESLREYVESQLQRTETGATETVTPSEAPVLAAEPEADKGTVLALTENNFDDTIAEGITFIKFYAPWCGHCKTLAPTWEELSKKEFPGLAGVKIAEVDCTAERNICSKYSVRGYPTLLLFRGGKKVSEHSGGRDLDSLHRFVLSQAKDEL

[8] = Inhibition of PDI (unknown origin) expressed in Escherichia coli BL21 (DE3) incubated for 1 hr and measured by insulin reduction assay; design: species or system Homo sapiens
Cytochrome P450 3A4 = Cytochrome P450 3A4 (Homo sapiens, UniProt P08684); assay: Inhibition of CYP3A4 in human liver microsomes using midazolam as substrate incubated for 30 mins by LC-MS/MS analysis; type: ADME; settings: 0.5 h
Sequence of Cytochrome P450 3A4 (P08684 whole entry): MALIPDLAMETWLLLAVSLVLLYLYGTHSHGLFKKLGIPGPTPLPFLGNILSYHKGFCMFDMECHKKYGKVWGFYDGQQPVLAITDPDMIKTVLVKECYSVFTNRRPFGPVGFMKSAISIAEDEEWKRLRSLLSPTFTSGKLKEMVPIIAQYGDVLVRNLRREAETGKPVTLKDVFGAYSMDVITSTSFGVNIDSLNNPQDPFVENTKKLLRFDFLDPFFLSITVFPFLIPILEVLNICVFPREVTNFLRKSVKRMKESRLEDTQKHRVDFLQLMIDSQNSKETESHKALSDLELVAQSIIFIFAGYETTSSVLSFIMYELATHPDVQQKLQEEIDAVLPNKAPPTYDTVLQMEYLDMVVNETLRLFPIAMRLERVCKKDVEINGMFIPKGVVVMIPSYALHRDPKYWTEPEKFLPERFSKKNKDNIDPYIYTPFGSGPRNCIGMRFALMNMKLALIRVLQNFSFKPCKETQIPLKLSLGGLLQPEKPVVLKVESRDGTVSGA

[9] = target: T2, Protein disulfide-isomerase A6 (Homo sapiens, UniProt Q15084); assay: Inhibition of PDIA6 (unknown origin) expressed in Escherichia coli BL21 (DE3) incubated for 1 hr and measured by insulin reduction assay
T2 sequence (Q15084 whole entry): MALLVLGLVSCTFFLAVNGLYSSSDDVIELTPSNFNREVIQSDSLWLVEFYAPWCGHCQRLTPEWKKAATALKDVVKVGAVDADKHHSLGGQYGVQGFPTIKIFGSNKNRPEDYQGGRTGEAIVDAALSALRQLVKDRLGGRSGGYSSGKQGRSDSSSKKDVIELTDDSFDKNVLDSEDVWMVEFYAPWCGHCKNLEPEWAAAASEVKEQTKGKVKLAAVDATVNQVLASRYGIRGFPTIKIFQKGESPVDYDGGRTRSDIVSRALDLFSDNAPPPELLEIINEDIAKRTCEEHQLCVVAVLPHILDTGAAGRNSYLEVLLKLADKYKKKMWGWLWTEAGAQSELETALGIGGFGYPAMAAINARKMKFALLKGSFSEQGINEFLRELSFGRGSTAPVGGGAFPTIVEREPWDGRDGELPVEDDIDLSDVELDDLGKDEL

[10] = target: T3, Protein disulfide-isomerase A4 (Homo sapiens, UniProt P13667); assay: Inhibition of PDIA4 (unknown origin) expressed in Escherichia coli BL21 (DE3) incubated for 1 hr and measured by insulin reduction assay
T3 sequence (P13667 whole entry): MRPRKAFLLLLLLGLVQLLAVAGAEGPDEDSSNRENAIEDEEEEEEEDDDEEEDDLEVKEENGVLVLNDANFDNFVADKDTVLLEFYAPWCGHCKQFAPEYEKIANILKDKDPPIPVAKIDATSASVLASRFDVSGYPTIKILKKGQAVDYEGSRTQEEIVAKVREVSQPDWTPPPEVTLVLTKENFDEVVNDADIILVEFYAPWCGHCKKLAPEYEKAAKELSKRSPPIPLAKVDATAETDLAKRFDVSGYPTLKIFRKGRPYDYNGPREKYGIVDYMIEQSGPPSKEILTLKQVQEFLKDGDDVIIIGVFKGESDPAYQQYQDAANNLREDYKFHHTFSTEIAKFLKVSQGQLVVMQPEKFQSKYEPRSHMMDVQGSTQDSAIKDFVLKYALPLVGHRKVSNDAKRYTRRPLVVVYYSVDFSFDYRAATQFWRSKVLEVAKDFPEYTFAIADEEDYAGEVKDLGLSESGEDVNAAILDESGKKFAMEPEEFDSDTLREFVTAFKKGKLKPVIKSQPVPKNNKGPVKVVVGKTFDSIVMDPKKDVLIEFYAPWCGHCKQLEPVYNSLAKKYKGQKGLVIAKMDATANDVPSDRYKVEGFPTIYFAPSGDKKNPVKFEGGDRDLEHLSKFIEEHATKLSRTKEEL

Row | Structure (SMILES) | ATF4 induction (activity call) (MM1.S [1]) | Nrf2 induction (activity call) (MM1.S [2]) | CHOP induction (activity call) (MM1.S [3]) | poly-ubiquitinated protein accumulation (qualitative) (MM1.S [4]) | IC50 [5] | IC50 ([6]; read-out: IC50) | IC50 [7] | IC50 [8] | inhibition (INH) (Cytochrome P450 3A4) | IC50 [9] | IC50 [10] | IC50 [6]
1 | CCCCCC/C=C1\C=C(C(F)(F)F)c2cc3c(cc21)OCCO3 | Active | Active | Active | Active |  |  |  |  |  |  |  | 
2 | CCCCCCCC/C=C1\C=C(C(F)(F)F)c2cc(O)c(O)cc21 | Active | Active | Active | Active | 4.8 µM | 30.3 µM | 12.1 µM | 0.6 µM | Not Active | 5.7 µM | 33.1 µM | 
3 | FC(F)(F)C1=C/C(=C\CCCCCCOCc2ccccc2)c2cc3c(cc21)OCO3 | Active | Active | Active | Active |  |  |  |  |  |  |  | 
4 | FC(F)(F)C1=C/C(=C/CCCCCCOCc2ccccc2)c2cc3c(cc21)OCO3 | Active | Active | Active | Active |  |  |  |  |  |  |  | 
5 | COc1cc2c(cc1OC)/C(=C\CCCCCCOCc1ccccc1)C=C2C(F)(F)F | Active | Active | Active | Active |  |  |  |  |  |  |  | 
6 | COc1cc2c(cc1OC)/C(=C/CCCCCCOCc1ccccc1)C=C2C(F)(F)F | Active | Active | Active | Active |  |  |  |  |  |  |  | 
7 | CCCCCCCC/C=C1\C=C(C(F)(F)F)c2cc(OC)c(OC)cc21 | Active | Active | Active | Active |  |  |  |  |  |  |  | 
8 | CCCCCC/C=C1\C=C(C(F)(F)F)c2cc(O)c(O)cc21 | Active | Active | Active | Active |  |  |  |  |  |  |  | 
9 | CCCCCCCC/C=C1/C=C(C(F)(F)F)c2cc(O)c(O)cc21 | Active | Active | Active | Active |  |  |  |  |  |  |  | 
10 | FC(F)(F)C1=C/C(=C\CC2CCCC2)c2cc3c(cc21)OCO3 | Active | Active | Active | Active |  |  |  |  |  |  |  | 
11 | FC(F)(F)C1=C/C(=C\CC2CCCCC2)c2cc3c(cc21)OCO3 | Active | Active | Active | Active |  |  |  |  |  |  |  | 
12 | CCCCCC/C=C1\C=C(C(=O)O)c2cc(O)c(O)cc21 | Active | Active | Active | Active |  |  |  |  |  |  |  | 
13 | CCCCCC/C=C1\C=C(C(=O)NC)c2cc(O)c(O)cc21 | Active | Active | Active | Active |  |  |  |  |  |  |  | 
14 | CCCCCC/C=C1\C=C(C(=O)OCC)c2cc(O)c(O)cc21 | Active | Active | Active | Active |  |  |  |  |  |  |  | 
15 | CCCCCC/C=C1/C=C(C(F)(F)F)c2cc(O)c(O)cc21 | Active | Active | Active | Active |  |  |  |  |  |  |  | 
16 | CCCCCCCC/C=C1/C=C(C(F)(F)F)c2cc(OC)c(OC)cc21 | Active | Active | Active | Active | 20.8 µM |  | > 100 µM | 1.12 µM |  | 16.3 µM | 61.6 µM | Not Active
17 | CCCCCC/C=C1\C=C(C(F)(F)F)c2cc3c(cc21)OCO3 | Active | Active | Active | Active | 16.5 µM |  | > 100 µM | 0.79 µM | Not Active | 12 µM | > 100 µM | Not Active
18 | CCCCCC/C=C1\C=C(C(F)(F)F)c2cc(OC)ccc21 | Active | Active | Active | Active |  |  |  |  |  |  |  | 
